“And” between values parts separate entries of the source, which are not always exact repeats. Equal values may be shown once. “Also recorded” adds a separate entry of the source.
Columns and labels:
CCR5+ cells = test: Double-label immunofluorescence microscopy of leukocytes infiltrating rejecting allografts; assay type: in vivo, Macaca fascicularis; conditions: in association with CCR5 blockade
Text: Double-label immunofluorescence microscopy using antibodies specific for CD3, CD68, CD11b, CCR5 and CXCR3 was used to characterize leukocyte populations infiltrating acutely rejecting (days 4, 6) cynomolgus cardiac allografts. CCR5 and CXCR3 are prominent on monocytes/macrophages and to a lesser extent on T-cells in rejecting cynomolgus heart allografts. Co-localization of CCR5 and CXCR3 to the same cells was common, particularly on the […] monocyte/macrophage population. Infiltration of CCR5+ cells was inhibited in association with CCR5 blockade. Graft failure was identified by a decrease in heart rate and ST elevation (associated with ischemia) on EKG and a decrease in arterial line pressure. […] (Note: n=7 refers to the data for the 3 control (i.e., saline) monkeys in this experiment plus data for 4 animals from a historic database that were scored as controls in which cyno cardiac allografts were rejected in the absense of immunosupression in a manner identical to the three controls in this experiment.)

[1] = test system: IL1-beta mRNA expression in RANTES-stimulated macrophages; test: Cytokine mRNA expression (TaqMan) in RANTES-stimulated human macrophages: IL1-beta; assay type: cell-based; conditions: RANTES 250 nM
Description: (§1) Human monocytes were isolated white blood cells concentrated from units of blood (i.e., leukopaks) from normal donors. To enhance CCR5 expression, the monocytes were cultured under suspension conditions in Teflon jars for 2 days in media supplemented with 12% fetal bovine serum. 10^6 cells were seeded and allowed to attach for over 2 hours in 6-well tissue culture plates. Cells were pre-incubated with either dimethylsulfoxide (DMSO; vehicle control) or Compound A at various concentrations for 1 hour, after which RANTES (the CCR5 agonist/ligand; Pepro Tech Inc.) was added at 250 nM, or, alternatively, media was added as a control. The cells were incubated at 37° C. for 24 hours, after which the media were removed and centrifuged to precipitate the non-adherent cells. Both the adhered and non-adhered cells were lysed and subjected to mRNA isolation, and the mRNA isolate was analyzed for cytokine expression by quantitative real time PCR (TaqMan). The relative mRNA-fold induction of cytokine gene expression in the RANTES-stimulated macrophages was calculated relative to day 2 non-stimulated, non-treated controls (i.e. fold induction=1 on day 2 for controls), as well as fold mRNA induction relative to vehicle (DMSO) (0 nM) control RANTES stimulated cells.

IL6 [2] = test: Cytometric Bead Array Human Inflammation Kit, serum/plasma on day of explant: IL6; assay type: in vivo, cynomologous monkeys
Description: (§2) Serum and plasma samples taken from the cynomologous monkeys in Example 1 on the day of explant (i.e., the day of graft rejection) were analyzed using the BD Pharmingen Cytometric Bead Array Human Inflammation Kit, which can measure IL1-β, IL6, IL8, IL10, IL12p70 and TNF-α. Reagents to detect IL6, IL8 and TNF-α have been shown by the manufacturer to cross react with rhesus and cynomologus monkey proteins. At the time of the assay, reagents to measure IL1-beta and IL12p70 had not yet been tested for cross reactivity to non-human primate proteins.
Samples were assayed in the manner described in the manufacturer's protocol booklet; i.e., “Human Inflammation Kit—Instruction Manual” (BD Biosciences, Cat. No. 551811, pdf copy available at www.bdbiosciences.com). Briefly, assay standards were reconstituted with assay diluent and diluted in two fold steps by serial dilution. Capture beads were mixed and distributed into an appropriate number of 12×75 mm polystyrene tubes. Standards or samples were added to the tubes and incubated in the dark at room temperature for 1.5 hours. The incubated tubes were washed once and phycoerythrin (PE)-labeled detection antibody reagent was added. Samples were again incubated in the dark at room temperature for 1.5 hours. After one final wash, samples were resuspended in 300 uL of wash buffer. Flow cytometer data was acquired using a Becton Dickinson FACSCalibur and analyzed with Becton Dickinson CBA Software.

[3] = test system: IL6 mRNA expression in RANTES-stimulated macrophages; test: Cytokine mRNA expression (TaqMan) in RANTES-stimulated human macrophages: IL6; assay type: cell-based; conditions: RANTES 250 nM
Description: as §1

[4] = Plasma trough concentrations by LC-MS/MS; assay type: in vivo, Macaca fascicularis; conditions: cynomolgus plasma, Compound A i.v. b.i.d.
[5] = test system: Cynomolgus macaques (Macaca fascicularis); test: Fever suppression after cardiac allotransplantation (telemetry body temperature, behaviour); assay type: in vivo; conditions: for monkeys that did not develop a fever (temperature greater than 38.5° C.): while recovering from transplantation, seven monkeys treated with CCR5 antagonist (alone or with cyclosporin)
CCR5 receptor = molecular target: T1, CCR5 receptor (Macaca fascicularis, UniProt P61814); test: Receptor occupancy corresponding to plasma concentration; assay type: binding; conditions: at a concentration of 100 nM
T1 construct: endogenous in cells; host or cells: cynomolgus monkey (in vivo, CCR5-bearing leukocytes)

IL8 = test: Cytometric Bead Array Human Inflammation Kit, serum/plasma on day of explant: IL8; assay type: in vivo, cynomologous monkeys; conditions: Compound A-treated monkeys
Description: as §2
Samples were assayed in the manner described in the manufacturer's protocol booklet; i.e., “Human Inflammation Kit—Instruction Manual” (BD Biosciences, Cat. No. 551811, pdf copy available at www.bdbiosciences.com). Briefly, assay standards were reconstituted with assay diluent and diluted in two fold steps by serial dilution. Capture beads were mixed and distributed into an appropriate number of 12×75 mm polystyrene tubes. Standards or samples were added to the tubes and incubated in the dark at room temperature for 1.5 hours. The incubated tubes were washed once and phycoerythrin (PE)-labeled detection antibody reagent was added. Samples were again incubated in the dark at room temperature for 1.5 hours. […] Flow cytometer data was acquired using a Becton Dickinson FACSCalibur and analyzed with Becton Dickinson CBA Software.

[6] = test system: cynomolgus cardiac allografts; test: Cardiac allograft survival / graft function after heterotopic transplantation; assay type: in vivo, Macaca fascicularis
Description: Cynomolgus macaques (Macaca fascicularis), weighing 2.4-4.7 kg, and ranging in estimated age from 2.2-5.5 years were selected as organ recipients. Donors were matched to recipients by AB blood type compatibility as tested by New York University, Nelson Institute of Environmental Medicine, Tuxedo, N.Y. MHC class II mismatch was assured by a stimulation index (SI)>3 in paired animals in unidirectional mixed lymphocyte reaction (MLR) using potential donor lymphocytes as stimulators and potential recipient peripheral blood mononuclear cells (PBMCs) as responders. Animals were matched by assigning pairs with maximal MLR response within groups of blood type compatible animals.
Donor operation: After systemic heparinization (70 units/kg, Elkins-Sinn Inc., Cherry Hill, N.J.) and collection of donor blood during equivolemic saline infusion, diastolic arrest of the donor heart was induced with University of Wisconsin organ preservation solution (15-20 cc/kg, 4° C.) via the aortic root. The heart was explanted and prepared: The mitral valve was rendered incompetent surgically, to prevent left ventricular distention, and an atrial septal defect was created by excising the fossa ovalis, to allow blood entering the left heart through the thebesian circulation to transit to and be ejected from the right heart.
Recipient operation: All recipient animals underwent traditional non-working intraabdominal cardiac allograft transplantation using a single clamp technique, wherein the donor aorta was anastomosed end-to-side to the infrarenal abdominal aorta, and the donor pulmonary artery was anastomosed to the adjacent vena cava. Heparin (70 Units/kg) (a Unit is equivalent to 3 mg/kg of body weight) was administered to the recipient prior to clamp placement. A silicon central venous catheter was introduced via the internal jugular vein, and tunneled to exit between the scapulae. Catheters were attached to swivel connection systems, and animals placed in protective cloth jackets incorporating a swiveling system which protected venous access.
Graft function and body temperature were assessed twice daily by monitoring with a fully implantable telemetry device (Data Sciences International, St. Paul, Minn.) (electrocardiogram (EKG), right ventricular pressure and animal body temperature) implanted at the time of transplantation. Confirmatory abdominal ultrasounds were performed at the time of protocol biopsies and whenever an examiner appreciated decreased contractility, if EKG voltage or rate (<120 beats per minute) was decreased, or if developed pulse pressure (delta P) in the graft was decreased. Cardiac biopsies were performed by protocol on postoperative days 4, 7, 14, through a laparotomy incision using a core biopsy needle. Graft failure was defined as loss of palpable graft activity, with ultrasound confirmation of weak or absent myocardial contractility. Failed grafts were explanted promptly and examined histologically.
Three animals received Compound A as monotherapy at a dose of 5 mg/kg, two animals received Compound A as monotherapy at a dose of 10 mg/kg, and three animals received an equivalent volume of saline (control). Compound A was administered intravenously twice daily at 12 hour intervals (i.e., b.i.d.) starting at transplant. […] The dose on the first day was 12.5 mg/kg, then 10 mg/kg daily for 7 days, then 5 mg/kg daily for 7 days, then 2.5 mg/kg/day until graft rejection or animal sacrifice.

IL6 [7] = test: Serum IL6 by DuoSet ELISA pre and post heterotopic heart transplant; assay type: in vivo, cynomolgus monkeys
Description: IL1β and IL6 can be measured using the DuoSet ELISA development kits from R&D Systems (Minneapolis, Minn.), following the directions of the manufacturer. Briefly, plates are coated with capture antibody [mouse anti-human IL1β (2 μg/ml) or mouse anti-human IL6 (4 μg/ml)] and detection antibodies are used at 100 ng/ml (biotinylated goat anti-human IL1β) or 200 ng/ml (biotinylated goat anti-human IL6). Standards are prepared with recombinant protein (3.9-250 pg/ml for IL1β and 4.7-300 pg/ml for IL6). Streptavidin conjugated to horseradish peroxidase and H2O2/tetramethylbenzidine are used for color development. Optical density (OD) is measured at 450 nm, with correction at 570 nm.
Serum samples were taken from the cynomolgus monkeys in Example 1 at various time points pre- and post-transplantation. The samples were diluted 1:2, in PBS/0.1% BSA/0.05% Tween 20. (PBS=phosphate buffered saline; BSA=bovine serum albumin.) IL6 levels (pg/ml) in pre and post heterotopic heart transplant in serum from the cynomolgus monkeys treated with Compound A were determined obtained in accordance with the above-described procedure.

[8] = Homo sapiens, Macrophage, Compound A 10 nM, 24 hours, mean ± SD
[9] = Homo sapiens, Macrophage, Compound A 30 nM, 24 hours, mean ± SD
[10] = Homo sapiens, Macrophage, Compound A 300 nM, 24 hours, mean ± SD

SMILES: CCn1nc(Cc2ccccc2)cc1C1CCN(C[C@H]2C[C@H](N(C)[C@@H](C(=O)O)C(C)C)C[C@@H]2c2cccc(F)c2)CC1 [Compound A]
- Infiltration of CCR5+ cells into cardiac allografts (CCR5+ cells): inhibited
- inhibition at 0.003 µM ([1]; Homo sapiens, Macrophage, Compound A 3 nM, 24 hours, mean ± SD): 37.6%
- inhibition at 0.01 µM [1, 8]: 50.1%
- inhibition at 0.03 µM [1, 9]: 59%
- inhibition at 0.1 µM ([1]; Homo sapiens, Macrophage, Compound A 100 nM, 24 hours, mean ± SD): 76.8%
- inhibition at 0.3 µM [1, 10]: 80.6%
- effect on IL1-β mRNA up-regulation by RANTES ([1]; human macrophages): diminish IL1-β and IL6 up-regulation significantly; also recorded: dose-dependent
- IL6 on day of explant (IL6 [2]; M308, Compound A monotherapy at 10 mg/kg/day b.i.d., explant day 8): 58 pg/mL
- IL6 on day of explant (IL6 [2]; M627, Compound A 10 mg/kg b.i.d., steroid rescue day 9, combined therapy with CsA 43 days, Compound A monotherapy from day 52, explant day 85): 20 pg/mL
- IL6 cytokine levels at the time of graft rejection relative to monkeys treated only with CsA (IL6 [2]; monkeys treated with Compound A): suppressed
- inhibition at 0.003 µM ([3]; Homo sapiens, Macrophage, Compound A 3 nM, 24 hours): 43%
- inhibition at 0.01 µM [3, 8]: 16.1%
- inhibition at 0.03 µM [3, 9]: 65.9%
- inhibition at 0.1 µM ([3]; Homo sapiens, Macrophage, Compound A 100 nM, 24 hours): 67.1%
- inhibition at 0.3 µM [3, 10]: 85.9%
- effect on IL6 mRNA up-regulation by RANTES ([3]; human macrophages): diminish IL1-β and IL6 up-regulation significantly; also recorded: dose-dependent
- trough plasma concentration (levels fell below target range at trough) [4]: < 100 nM
- malaise ([5]; after cardiac allotransplantation, in contrast to the five control animals): not to exhibit malaise
- symptoms of abdominal tenderness ([5]; after transplant and during rejection of the graft): did not exhibit any symptoms of abdominal tenderness
- recovery from surgery (how quickly normal activity levels resumed) ([5]; despite additional procedures on days 4 and 7-8): recovered more quickly from surgery
- average temperature ([5]; first three days after allograft implantation, six of the seven animals treated with Compound A (5 or 10 mg/kg b.i.d. i.v., alone or with CsA)): below 37.5 °C
- average temperature difference versus control monkeys (saline, no immunosuppressive therapy) ([5]; first three days after surgery): about one degree lower
- average temperature difference versus cyclosporin-only-treated animals ([5]; first three days after surgery): one half degree lower; also recorded: about 0.5 °C
- average temperature over the first three days after surgery ([5]; monkeys with cardiac allografts, control (saline) ca. 38.5° C.): circa 37.5 °C
- animals in which individual temperature elevations reached 38.5° C. on any occasion ([5]; of the seven animals treated with Compound A): 3
- monkeys that did not develop a fever (temperature greater than 38.5° C.) [5]: six of seven
- monkeys that did not develop a fever (temperature greater than 38.5° C.) ([5]; listed as CCR5 antagonist): Six out of the seven
- receptor occupancy at 0.1 µM (CCR5 receptor): ~90%
- IL8 cytokine levels at the time of graft rejection relative to CsA-only treated monkeys (IL8): did not indicate suppression of IL8 levels
- Graft survival ([6]; Compound A monotherapy 5 mg/kg i.v. b.i.d., n=3, controls 6±0.4 days (n=7), p=0.05): 8.3 ± 0.6 days
- Explant Day (day of graft rejection) ([6]; M308, Compound A monotherapy at 10 mg/kg/day b.i.d.): 8
- Explant Day (day of graft rejection) ([6]; M627, Compound A 10 mg/kg b.i.d., rescued day 9 with bolus steroids, combined therapy with CsA 43 days, from day 52 Compound A monotherapy): 85
- day to which vigorous graft function persisted ([6]; one animal: Compound A alone 10 mg/kg b.i.d., rescued day 9 with bolus steroids, combined therapy with CsA 43 days, CsA stopped day 52, Compound A continued): 83 days and 78 days
- IL6 level, Day 0 Post (IL6 [7]; serum post-transplantation, Compound A monotherapy 10 mg/kg/day b.i.d., M308, M627): 63.7 pg/mL and 106.2 pg/mL
- IL6 level, Day 0 Pre (IL6 [7]; serum pre-transplantation, animals M308, M627 later given Compound A monotherapy 10 mg/kg/day b.i.d.): 4.6 pg/mL and 3.4 pg/mL
- IL6 level, Day 8 (IL6 [7]; serum, Compound A monotherapy 10 mg/kg/day b.i.d., M308): 24.3 pg/mL
